Reference: PubChem BioAssay (NCI)
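1) Cells in 96-well plates. 2) Compound, 48 h, 5 concentrations. 3) Linear interpolation between surrounding doses. 4) Unreached endpoint = highest concentration. Abbreviation: GI50, concentration required for 50% inhibition of growth. TGI: total growth inhibition.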

Legend:
Assay in all cases: DTP human tumour cell line panel, 48 h
HOP-92 NSCLC = tested on: HOP-92 NSCLC
HOP-62 NSCLC = tested on: HOP-62 NSCLC
SF-268 CNS = tested on: SF-268 CNS
UACC-62 melanoma = tested on: UACC-62 melanoma
HCC-2998 colon = tested on: HCC-2998 colon
SNB-75 CNS = tested on: SNB-75 CNS
CCRF-CEM leukemia = tested on: CCRF-CEM leukemia
U251 CNS = tested on: U251 CNS
RPMI-8226 leukemia = tested on: RPMI-8226 leukemia
SK-OV-3 ovarian = tested on: SK-OV-3 ovarian
M14 melanoma = tested on: M14 melanoma
A549 NSCLC = tested on: A549 NSCLC
SK-MEL-28 melanoma = tested on: SK-MEL-28 melanoma
NCI-H522 lung = tested on: NCI-H522 lung
KM12 colon = tested on: KM12 colon
786-0 renal = tested on: 786-0 renal
M19-MEL melanoma = tested on: M19-MEL melanoma
OVCAR-4 ovarian = tested on: OVCAR-4 ovarian
LOX IMVI melanoma = tested on: LOX IMVI melanoma
SF-295 CNS = tested on: SF-295 CNS
HL-60(TB) leukemia = tested on: HL-60(TB) leukemia
OVCAR-5 ovarian = tested on: OVCAR-5 ovarian
HCT-15 colon = tested on: HCT-15 colon
OVCAR-3 ovarian = tested on: OVCAR-3 ovarian
DMS 114 small cell lung = tested on: DMS 114 small cell lung
HOP-18 NSCLC = tested on: HOP-18 NSCLC
UO-31 renal = tested on: UO-31 renal
HCT-116 colon = tested on: HCT-116 colon
RXF 393 renal = tested on: RXF 393 renal
SK-MEL-2 melanoma = tested on: SK-MEL-2 melanoma
MOLT-4 leukemia = tested on: MOLT-4 leukemia
NCI-H460 lung = tested on: NCI-H460 lung
SN12C renal = tested on: SN12C renal
TK-10 renal = tested on: TK-10 renal
HT29 colon = tested on: HT29 colon
OVCAR-8 ovarian = tested on: OVCAR-8 ovarian
K-562 leukemia = tested on: K-562 leukemia
MALME-3M melanoma = tested on: MALME-3M melanoma
SR leukemia = tested on: SR leukemia
DLD-1 colon = tested on: DLD-1 colon
CAKI-1 renal = tested on: CAKI-1 renal
SK-MEL-5 melanoma = tested on: SK-MEL-5 melanoma
SF-539 CNS = tested on: SF-539 CNS
A498 renal = tested on: A498 renal
NCI-H23 lung = tested on: NCI-H23 lung
SNB-19 CNS = tested on: SNB-19 CNS
ACHN renal = tested on: ACHN renal
LXFL 529 NSCLC = tested on: LXFL 529 NSCLC
IGROV1 ovarian = tested on: IGROV1 ovarian
SW-620 colon = tested on: SW-620 colon
COLO 205 colon = tested on: COLO 205 colon
EKVX NSCLC = tested on: EKVX NSCLC
KM20L2 colon = tested on: KM20L2 colon
NCI-H226 lung = tested on: NCI-H226 lung
SNB-78 CNS = tested on: SNB-78 CNS
UACC-257 melanoma = tested on: UACC-257 melanoma

Compound: CC1(CO)OC(n2cnc3c(N)ncnc32)C(O)C1O (stereo unspecified)
- TGI (HOP-92 NSCLC): > 100 µM
- TGI (HOP-62 NSCLC): > 100 µM
- TGI (SF-268 CNS): > 100 µM
- TGI (UACC-62 melanoma): > 100 µM
- TGI (HCC-2998 colon): > 100 µM
- TGI (SNB-75 CNS): > 100 µM
- TGI (CCRF-CEM leukemia): > 100 µM
- TGI (U251 CNS): > 100 µM
- TGI (RPMI-8226 leukemia): > 100 µM
- TGI (SK-OV-3 ovarian): > 100 µM
- TGI (M14 melanoma): > 100 µM
- TGI (A549 NSCLC): > 100 µM
- TGI (SK-MEL-28 melanoma): > 100 µM
- TGI (NCI-H522 lung): > 100 µM
- TGI (KM12 colon): > 100 µM
- TGI (786-0 renal): > 100 µM
- TGI (M19-MEL melanoma): > 100 µM
- TGI (OVCAR-4 ovarian): > 100 µM
- TGI (LOX IMVI melanoma): > 100 µM
- TGI (SF-295 CNS): > 100 µM
- TGI (HL-60(TB) leukemia): > 100 µM
- TGI (OVCAR-5 ovarian): > 100 µM
- TGI (HCT-15 colon): > 100 µM
- TGI (OVCAR-3 ovarian): > 100 µM
- TGI (DMS 114 small cell lung): > 100 µM
- TGI (HOP-18 NSCLC): > 100 µM
- TGI (UO-31 renal): > 100 µM
- TGI (HCT-116 colon): > 100 µM
- TGI (RXF 393 renal): > 100 µM
- TGI (SK-MEL-2 melanoma): > 100 µM
- TGI (MOLT-4 leukemia): > 100 µM
- TGI (NCI-H460 lung): > 100 µM
- TGI (SN12C renal): > 100 µM
- TGI (TK-10 renal): > 100 µM
- TGI (HT29 colon): > 100 µM
- TGI (OVCAR-8 ovarian): > 100 µM
- TGI (K-562 leukemia): > 100 µM
- TGI (MALME-3M melanoma): > 100 µM
- TGI (SR leukemia): > 100 µM
- TGI (DLD-1 colon): > 100 µM
- TGI (CAKI-1 renal): > 100 µM
- TGI (SK-MEL-5 melanoma): > 100 µM
- TGI (SF-539 CNS): > 100 µM
- TGI (A498 renal): > 100 µM
- TGI (NCI-H23 lung): > 100 µM
- TGI (SNB-19 CNS): > 100 µM
- TGI (ACHN renal): > 100 µM
- TGI (LXFL 529 NSCLC): > 100 µM
- TGI (IGROV1 ovarian): > 100 µM
- TGI (SW-620 colon): > 100 µM
- TGI (COLO 205 colon): > 100 µM

Compound: CC[N-]c1nnnn1CC.[Au+].c1ccc([PH+](c2ccccc2)c2ccccc2)cc1
- GI50 (HOP-62 NSCLC): 2.07 µM
- TGI (HOP-62 NSCLC): 3.72 µM
- GI50 (UACC-62 melanoma): 1.2 µM
- TGI (UACC-62 melanoma): 3.18 µM
- GI50 (EKVX NSCLC): 1.7 µM
- TGI (EKVX NSCLC): 4.04 µM
- GI50 (HCC-2998 colon): 1.68 µM
- TGI (HCC-2998 colon): 3.15 µM
- GI50 (SNB-75 CNS): 1.35 µM
- TGI (SNB-75 CNS): 3.46 µM
- GI50 (U251 CNS): 1.96 µM
- TGI (U251 CNS): 6.48 µM
- GI50 (RPMI-8226 leukemia): 0.568 µM
- TGI (RPMI-8226 leukemia): 4.48 µM
- GI50 (SK-OV-3 ovarian): 4.95 µM
- TGI (SK-OV-3 ovarian): 9.98 µM
- GI50 (M14 melanoma): 1.29 µM
- TGI (M14 melanoma): 2.79 µM
- GI50 (A549 NSCLC): 4.93 µM
- TGI (A549 NSCLC): > 53.5 µM
- GI50 (SK-MEL-28 melanoma): 0.677 µM
- TGI (SK-MEL-28 melanoma): 2.16 µM
- GI50 (KM12 colon): 2.93 µM
- TGI (KM12 colon): 11.6 µM
- GI50 (786-0 renal): 1.37 µM
- TGI (786-0 renal): 2.67 µM
- TGI (M19-MEL melanoma): 4.24 µM
- GI50 (LOX IMVI melanoma): 1.45 µM
- TGI (LOX IMVI melanoma): 2.93 µM
- GI50 (SF-295 CNS): 3.09 µM
- TGI (SF-295 CNS): 10 µM
- GI50 (HL-60(TB) leukemia): 0.187 µM
- TGI (HL-60(TB) leukemia): 0.68 µM
- GI50 (OVCAR-5 ovarian): 4.5 µM
- TGI (OVCAR-5 ovarian): 9.16 µM
- GI50 (KM20L2 colon): 2 µM
- TGI (KM20L2 colon): 12.9 µM
- GI50 (OVCAR-3 ovarian): 1.76 µM
- TGI (OVCAR-3 ovarian): 3.15 µM
- GI50 (NCI-H226 lung): 1.44 µM
- TGI (NCI-H226 lung): 3.2 µM
- GI50 (HOP-18 NSCLC): 1.82 µM
- TGI (HOP-18 NSCLC): 3.23 µM
- GI50 (UO-31 renal): 1.66 µM
- TGI (UO-31 renal): 3.14 µM
- GI50 (HCT-116 colon): 1.55 µM
- TGI (HCT-116 colon): 2.9 µM
- GI50 (RXF 393 renal): 0.242 µM
- TGI (RXF 393 renal): 0.801 µM
- GI50 (SK-MEL-2 melanoma): 1.14 µM
- TGI (SK-MEL-2 melanoma): 2.39 µM
- GI50 (MOLT-4 leukemia): 0.716 µM
- TGI (MOLT-4 leukemia): 3.74 µM
- GI50 (NCI-H460 lung): 3.71 µM
- TGI (NCI-H460 lung): > 20.7 µM
- GI50 (SN12C renal): 1.65 µM
- TGI (SN12C renal): 3.26 µM
- GI50 (SNB-78 CNS): 2.5 µM
- TGI (SNB-78 CNS): > 100 µM
- GI50 (TK-10 renal): 1.66 µM
- TGI (TK-10 renal): 3.07 µM
- GI50 (OVCAR-8 ovarian): 1.57 µM
- TGI (OVCAR-8 ovarian): 3.07 µM
- GI50 (K-562 leukemia): 0.342 µM
- TGI (K-562 leukemia): 1.91 µM
- GI50 (MALME-3M melanoma): 1.24 µM
- TGI (MALME-3M melanoma): 2.55 µM
- GI50 (SK-MEL-5 melanoma): 0.811 µM
- TGI (SK-MEL-5 melanoma): 2.22 µM
- GI50 (SF-539 CNS): 2.1 µM
- TGI (SF-539 CNS): 5.79 µM
- GI50 (UACC-257 melanoma): 1.27 µM
- TGI (UACC-257 melanoma): 2.72 µM
- GI50 (NCI-H23 lung): 1.39 µM
- TGI (NCI-H23 lung): 3.01 µM
- GI50 (SNB-19 CNS): 1.44 µM
- TGI (SNB-19 CNS): 2.76 µM
- GI50 (ACHN renal): 1.62 µM
- TGI (ACHN renal): 3.02 µM
- GI50 (LXFL 529 NSCLC): 0.723 µM
- TGI (LXFL 529 NSCLC): 2.04 µM
- GI50 (IGROV1 ovarian): 2.26 µM
- TGI (IGROV1 ovarian): 5.96 µM
- GI50 (COLO 205 colon): 2.19 µM
- TGI (COLO 205 colon): 5.4 µM
